Test results reported in patent publication US20170334899A1, “AMINO-SUBSTITUTED ISOTHIAZOLES” (Bayer Pharma Aktiengesellschaft, priority 2014, published 2017).

Key:
[1] = test system: human cervical tumor cell line HeLa (ATCC CCL-2); test: SAC-Formation - Paclitaxel-Induced Assay; type: cell-based; settings: Homo sapiens, HeLa, 24 h, HeLa cells, paclitaxel 0.05 μM, test range 0.005 μM-20 μM, read-out: IC50 [mol/l] SAC-Formation - Paclitaxel-Induced Assay
How it was run: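 Read-out is high-content imaging of anti-phospho-H3 Ser10 (mitosis) and Hoechst 33342 (DNA, cell number), with decreased mitotic fraction marking checkpoint breakthrough. Compounds (0.005–20 μM) and 0.05 μM paclitaxel co-added to overnight-plated HeLa for 24 h at 37° C; four-parameter Hill fit.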

[2] = test system: human cervical tumor cell line HeLa (ATCC CCL-2); test: SAC-Formation - Nocodazole-Induced Assay; type: cell-based; settings: Homo sapiens, HeLa, 24 h, HeLa cells, nocodazole 0.1 μg/ml together with test compound, decrease of mitotic cells (phospho-histone H3 Ser10)
How it was run: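 Loss of phospho-histone H3 Ser10-positive cells, counted against Hoechst-stained nuclei by high-content imaging, marked mitotic breakthrough. Compounds (0.005–20 μM, 0.5% DMSO) were co-dosed with 0.1 μg/ml nocodazole onto HeLa cells for 24 h at 37 °C. Curves were fitted with a four-parameter Hill equation.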

Row | IC50 [1] | IC50 [2] | SMILES
1 | 0.042 µM | 0.017 µM | Cc1nsc(Nc2cnc(C(F)(F)F)cn2)c1C(=O)Nc1ccc(F)c(O[C@@H]2CCN(CC(F)(F)F)C2)c1 [Example 413, N-(4-Fluoro-3-{[(3R)-1-(2,2,2-trifluoroethyl)pyrrolidin-3-yl]oxy}phenyl)-3-methyl-5-{[5-(trifluoromethyl)pyrazin-2-yl]amino}-1,2-thiazole-4-carboxamide]
2 | 0.41 µM | 0.029 µM | Cc1nsc(Nc2cnc3ccccc3n2)c1C(=O)Nc1cccc(C(=O)OC(C)(C)C)c1 [Example 49, tert-Butyl 3-({[3-methyl-5-(quinoxalin-2-ylamino)-1,2-thiazol-4-yl]carbonyl}amino)-benzoate]
3 | 0.13 µM | 0.038 µM | Cc1nsc(Nc2cnc(C(F)(F)F)cn2)c1C(=O)Nc1ccc(F)c(OC[C@H]2CCCN(CC(F)(F)F)C2)c1 [Example 419, N-(4-Fluoro-3-{[(3S)-1-(2,2,2-trifluoroethyl)piperidin-3-yl]methoxy}phenyl)-3-methyl-5-{[5-(trifluoromethyl)pyrazin-2-yl]amino}-1,2-thiazole-4-carboxamide]
4 | 0.047 µM | 0.0031 µM | CCCN1C[C@H](F)[C@H](Oc2ccc(NC(=O)c3c(C)nsc3Nc3cnc(C(F)(F)F)cn3)cn2)C1 [Example 408, N-(6-{[(3R,4S)-4-Fluoro-1-propylpyrrolidin-3-yl]oxy}pyridin-3-yl)-3-methyl-5-{[5-(trifluoromethyl)pyrazin-2-yl]amino}-1,2-thiazole-4-carboxamide]
5 | 0.35 µM | 0.72 µM | Cc1nsc(Nc2cnc(C(F)(F)F)cn2)c1C(=O)Nc1ccc(OCCNC(=O)C(F)(F)F)nc1 [Example 425, 3-Methyl-N-(6-{2-[(trifluoroacetyl)amino]ethoxy}pyridin-3-yl)-5-{[5-(trifluoro-methyl)pyrazin-2-yl]amino}-1,2-thiazole-4-carboxamide]
6 | 13 µM | 1.8 µM | Cc1nsc(Nc2ccc(C#N)cn2)c1C(=O)Nc1ccc(OC2CCCN(CCF)C2)nc1 (stereo not drawn) [Example 38, 5-[(5-Cyanopyridin-2-yl)amino]-N-(6-{[1-(2-fluoroethyl)piperidin-3-yl]oxy}pyridin-3-yl)-3-methyl-1,2-thiazole-4-carboxamide]
7 | 1.2 µM | 0.17 µM | Cc1nsc(Nc2cnc3ccccc3n2)c1C(=O)Nc1cccc(NC(=O)C(F)(F)F)c1 [Example 432, 3-Methyl-5-(quinoxalin-2-ylamino)-N-{3-[(trifluoroacetyl)amino]phenyl}-1,2-thiazole-4-carboxamide]
8 | 0.094 µM | 0.072 µM | COCCOc1ccc(NC(=O)c2c(C)nsc2Nc2nc3c(C(F)(F)F)cccc3s2)cc1F [Example 1, N-[3-Fluoro-4-(2-methoxyethoxy)phenyl]-3-methyl-5-{[4-(trifluoromethyl)-1,3-benzothiazol-2-yl]amino}-1,2-thiazole-4-carboxamide]
9 | 0.62 µM | 4.5 µM | COC(=O)c1cccc(NC(=O)c2c(C)nsc2Nc2cnc3ccccc3n2)c1 [Example 50, Methyl 3-({[3-methyl-5-(quinoxalin-2-ylamino)-1,2-thiazol-4-yl]carbonyl}amino)-benzoate]
10 | 0.24 µM | 0.12 µM | Cc1nsc(Nc2cnc(C(F)(F)F)cn2)c1C(=O)Nc1ccc(CCC2CCN(CCC(F)(F)F)CC2)nc1 [Example 420, 3-Methyl-5-{[5-(trifluoromethyl)pyrazin-2-yl]amino}-N-(6-{2-[1-(3,3,3-trifluoro-propyl)piperidin-4-yl]ethyl}pyridin-3-yl)-1,2-thiazole-4-carboxamide]
11 | 0.044 µM | 0.039 µM | Cc1nsc(Nc2cnc(C(F)(F)F)cn2)c1C(=O)Nc1ccc(F)c(O[C@@H]2CCN(CCC(F)(F)F)C2)c1 [Example 414, N-(4-Fluoro-3-{[(3R)-1-(3,3,3-trifluoropropyl)pyrrolidin-3-yl]oxy}phenyl)-3-methyl-5-{[5-(trifluoromethyl)pyrazin-2-yl]amino}-1,2-thiazole-4-carboxamide]
12 | 1.3 µM | 0.21 µM | Cc1nsc(Nc2ccc(C#N)cn2)c1C(=O)Nc1ccc(Nc2ccc(F)c(F)c2)nc1 [Example 433, 5-[(5-Cyanopyridin-2-yl)amino]-N-{6-[(3,4-difluorophenyl)amino]pyridin-3-yl}-3-methyl-1,2-thiazole-4-carboxamide]
13 | 0.045 µM | 0.011 µM | Cc1nsc(Nc2cncc(C(F)(F)F)n2)c1C(=O)Nc1ccc(OCCN(C)C(=O)OC(C)(C)C)nc1 [Example 430, tert-Butyl methyl{2-[(5-{[(3-methyl-5-{[6-(trifluoromethyl)pyrazin-2-yl]amino}-1,2-thiazol-4-yl)carbonyl]amino}pyridin-2-yl)oxy]ethyl}carbannate]
14 | 3.1 µM | 0.93 µM | Cc1nsc(Nc2cnc3ccccc3n2)c1C(=O)Nc1cccc(C(=O)N2CCN(C(=O)OC(C)(C)C)CC2)c1 [Example 55, tert-Butyl 4-[3-({[3-methyl-5-(quinoxalin-2-ylamino)-1,2-thiazol-4-yl]carbonyl}amino)-benzoyl]piperazine-1-carboxylate]
15 | 0.14 µM | 0.21 µM | Cc1nsc(Nc2cnc(C(F)(F)F)cn2)c1C(=O)Nc1ccc(F)c(OC[C@H]2CCCN(CCC(F)(F)F)C2)c1 [Example 418, N-(4-Fluoro-3-{[(3S)-1-(3,3,3-trifluoropropyl)piperidin-3-yl]methoxy}phenyl)-3-methyl-5-{[5-(trifluoromethyl)pyrazin-2-yl]amino}-1,2-thiazole-4-carboxamide]
16 | 0.011 µM | 0.013 µM | Cc1nsc(Nc2cnc(C(F)(F)F)cn2)c1C(=O)Nc1ccc(F)c(O[C@@H]2CCN(CC(F)F)C2)c1 [Example 412, N-(3-{[(3R)-1-(2,2-Difluoroethyl)pyrrolidin-3-yl]oxy}-4-fluorophenyl)-3-methyl-5-{[5-(trifluoromethyl)pyrazin-2-yl]amino}-1,2-thiazole-4-carboxamide]
17 | 0.26 µM | 0.016 µM | Cc1nsc(Nc2cnc(C(F)(F)F)cn2)c1C(=O)Nc1ccc(OCCN(C)C(=O)OC(C)(C)C)nc1 [Example 429, tert-Butyl methyl{2-[(5-{[(3-methyl-5-{[5-(trifluoromethyl)pyrazin-2-yl]amino}-1,2-thiazol-4-yl)carbonyl]amino}pyridin-2-yl)oxy]ethyl}carbannate]
18 | 1.1 µM | 0.95 µM | Cc1nsc(Nc2cnc3ccccc3n2)c1C(=O)Nc1cccc(C(=O)NC(C)(C)C)c1 [Example 53, N-[3-(tert-Butylcarbamoyl)-phenyl]-3-methyl-5-(quinoxalin-2-ylamino)-1,2-thiazole-4-carboxamide]
19 | 0.3 µM | 0.13 µM | Cc1nsc(Nc2cc(C#N)ccn2)c1C(=O)Nc1ccc(OCCCNC(=O)OC(C)(C)C)nc1 [Example 43, tert-Butyl [3-({5-[({5-[(4-cyanopyridin-2-yl)amino]-3-methyl-1,2-thiazol-4-yl}-carbonyl)amino]pyridin-2-yl}oxy)propyl]carbamate]
20 | 0.13 µM | 0.23 µM | COCCOc1ccc(NC(=O)c2c(C)nsc2Nc2nc3c(C(F)(F)F)cccc3s2)cn1 [Example 3, N-[6-(2-Methoxyethoxy)pyridin-3-yl]-3-methyl-5-{[4-(trifluoromethyl)-1,3-benzo-thiazol-2-yl]amino}-1,2-thiazole-4-carboxamide]
21 | 0.19 µM | – | CCCN1CCC(COc2ccc(NC(=O)c3c(C)nsc3Nc3cnc(C(F)(F)F)cn3)cn2)C(F)(F)C1 (stereo not drawn) [Example 394, N-{6-[(3,3-difluoro-1-propylpiperidin-4-yl)methoxy]pyridin-3-yl}-3-methyl-5-{[5-(trifluoromethyl)pyrazin-2-yl]amino}-1,2-thiazole-4-carboxamide]
22 | 0.39 µM | 0.15 µM | Cc1nsc(Nc2ccc(C#N)cn2)c1C(=O)Nc1ccc(OC2CCCN(CC(F)(F)F)C2)nc1 (stereo not drawn) [Example 40, 5-[(5-Cyanopyridin-2-yl)amino]-3-methyl-N-(6-{[1-(2,2,2-trifluoroethyl)piperidin-3-yl]oxy}pyridin-3-yl)-1,2-thiazole-4-carboxamide]
23 | 1.3 µM | 0.99 µM | Cc1nsc(Nc2cnc3ccccc3n2)c1C(=O)Nc1cccc(C(=O)NCC(=O)OC(C)(C)C)c1 [Example 54, tert-Butyl N-[3-({[3-methyl-5-(quinoxalin-2-ylamino)-1,2-thiazol-4-yl]carbonyl}amino)-benzoyl]glycinate]
24 | – | 0.027 µM | Cc1nsc(Nc2cnc(C(F)(F)F)cn2)c1C(=O)Nc1ccc(OCC2CCN(CC(F)F)CC2(F)F)nc1 (stereo not drawn) [Example 401, N-(6-{[1-(2,2-difluoroethyl)-3,3-difluoropiperidin-4-yl]methoxy}pyridin-3-yl)-3-methyl-5-{[5-(trifluoromethyl)pyrazin-2-yl]amino}-1,2-thiazole-4-carboxamide]
25 | – | 0.086 µM | Cc1nsc(Nc2ccc(C#N)cn2)c1C(=O)Nc1ccc(OC[C@H]2CCN(CC(F)(F)F)C2)nc1 [Example 405, 5-[(5-Cyanopyridin-2-yl)amino]-3-methyl-N-(6-{[(35)-1-(2,2,2-trifluoroethyl)pyrrolidin-3-yl]methoxy}pyridin-3-yl)-1,2-thiazole-4-carboxamide]
26 | 0.029 µM | – | Cc1nsc(Nc2cnc(C(F)(F)F)cn2)c1C(=O)Nc1ccc(OC[C@H]2CCCN(CCC(F)(F)F)C2)nc1 [Example 378, 3-methyl-5-{[5-(trifluoromethyl)pyrazin-2-yl]amino}-N-(6-{[(3S)-1-(3,3,3-trifluoropropyl)piperidin-3-yl]methoxy}pyridin-3-yl)-1,2-thiazole-4-carboxamide]
